Test results taken from patent publication US20220315554A1, “COMPOUNDS COMPRISING A […] LIGAND AND USE THEREOF” (priority 2019, published 2022).
Numbered stars: 1 amine (or outer) side, 2 acyl side, 3 side chain; on linkers, the order of the positions; unused ones are H or OH. Bridge positions count the residues as written; N and C are the ends. Square brackets hold non-standard residues; d marks the D form. Peptide text beside a SMILES is read from it. * marks the point of attachment. X19 = NC(=O)[C@H](CCCCNC(=O)CN1CCN(CC(=O)O)CCN(CC(=O)O)CCN(CC(=O)O)CC1)NC(=O)CCC(=O)NCCCOCCOCCNCCCN*; TBMB(SCH2CH2NH-DOTA) = O=C(O)CN1CCN(CC(=O)O)CCN(CC(=O)NCCSCc2cc(C[*:1])cc(C[*:2])c2)CCN(CC(=O)O)CC1; X3 = NC(=O)[C@H](CCCCNC(=O)CN1CCN(CC(=O)O)CCN(CC(=O)O)CCN(CC(=O)O)CC1)NC(=O)CCC(=O)NCCCOCCOCCOCCCN*; NH(CH2)5NHDOTA = O=C(O)CN1CCN(CC(=O)O)CCN(CC(=O)NCCCCCN*)CCN(CC(=O)O)CC1; X2 = O=C(O)CN1CCN(CC(=O)O)CCN(CC(=O)NCCCOCCOCCOCCCN*)CCN(CC(=O)O)CC1; mXylylene = c1cc(C[*:1])cc(C[*:2])c1; Pentanesulfonyl = CCCCCS(=O)(=O)*; Suc = O=C(CCC(=O)[*:2])[*:1]; 3Amb = NCc1cccc(C(=O)O)c1; 4Amb = NCc1ccc(C(=O)O)cc1; Nle = CCCC[C@H](N)C(=O)O; Hexanoyl = CCCCCC(=O)*; GABA = NCCCC(=O)O

Experiments:
Human recombinant FAP [1] = molecular target: T1, Human recombinant FAP (Homo sapiens, UniProt Q12884); assay: Surface plasmon resonance (Biacore) assay; type: binding
T1 sequence (Q12884 1-760): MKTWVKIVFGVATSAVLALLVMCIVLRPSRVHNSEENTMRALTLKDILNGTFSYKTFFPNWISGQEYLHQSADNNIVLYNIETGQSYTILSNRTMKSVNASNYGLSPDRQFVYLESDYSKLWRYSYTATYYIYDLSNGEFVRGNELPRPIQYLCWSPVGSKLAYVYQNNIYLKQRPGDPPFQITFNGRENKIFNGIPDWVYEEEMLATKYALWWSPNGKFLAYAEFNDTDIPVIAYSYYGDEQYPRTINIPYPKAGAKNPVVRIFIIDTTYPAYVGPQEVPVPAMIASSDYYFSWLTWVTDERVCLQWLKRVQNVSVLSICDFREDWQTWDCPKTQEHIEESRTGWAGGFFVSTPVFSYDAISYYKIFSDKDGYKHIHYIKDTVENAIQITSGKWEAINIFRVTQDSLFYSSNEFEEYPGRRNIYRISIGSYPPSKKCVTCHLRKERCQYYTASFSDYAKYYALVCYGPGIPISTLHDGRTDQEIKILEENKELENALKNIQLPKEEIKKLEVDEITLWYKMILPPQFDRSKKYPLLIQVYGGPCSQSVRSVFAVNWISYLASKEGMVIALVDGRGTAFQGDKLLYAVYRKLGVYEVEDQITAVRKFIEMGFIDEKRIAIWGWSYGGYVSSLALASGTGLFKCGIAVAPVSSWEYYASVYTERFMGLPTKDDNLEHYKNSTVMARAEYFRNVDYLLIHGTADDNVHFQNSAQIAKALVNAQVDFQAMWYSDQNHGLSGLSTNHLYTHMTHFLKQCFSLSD

Human recombinant FAP [2] = molecular target: T1, Human recombinant FAP; assay: FRET-based FAP protease activity assay; type: biochemical; set-up: purchased R&D systems 3715-SE; conditions: pIC50 Category (Activity), FRET substrate, 37° C.
[3] = molecular target: T2, FAP-expressing human WI-38 fibroblasts (Homo sapiens, UniProt Q12884); assay: Competitive FACS binding assay; conditions: pIC50 Category (FACS), competition with 3 nM Cy5-labeled compound, 4° C., 1 hour
T2 construct: FAP-expressing human WI-38 fibroblasts (ECACC) were cultured in EMEM; host or cells: WI-38 human fibroblasts
T2 sequence (Q12884 1-760): T1 sequence (Q12884 1-760)
Description: Cells were analyzed in an Attune NxT flow cytometer. […]

| Kd (Human recombinant FAP [1]) | IC50 (Human recombinant FAP [2]; recombinant human FAP) | IC50 ([3]; WI-38 fibroblasts) | IC50 (Human recombinant FAP [2]) | IC50 [3] | SMILES |
| --- | --- | --- | --- | --- | --- |
| < 0.01 µM | < 0.01 µM | < 0.01 µM |  |  | CCCCCC(=O)N[C@H]1CSCc2cccc(c2)CSC[C@@H](C(=O)N[C@@H](CC(=O)O)C(N)=O)NC(=O)[C@H](Cc2ccccc2)NC(=O)[C@H](CCC(=O)O)NC(=O)[C@H]([C@@H](C)O)NC(=O)[C@@H]2CCCN2C(=O)[C@@H]2CCCN2C1=O [3BP-3288, Hex-[Cys(3MeBn)-Pro-Pro-Thr-Glu-Phe-Cys]-Asp-NH2] (Hexanoyl-CPPTEFCD-NH2; linker 1-7 via mXylylene) |
| < 0.01 µM | < 0.01 µM | < 0.01 µM |  |  | CCCCCC(=O)N[C@H]1CSCc2cccc(c2)CSC[C@@H](C(=O)N[C@@H](CC(=O)O)C(=O)NCCCC(=O)N[C@@H](CCCNC(=N)N)C(N)=O)NC(=O)[C@H](Cc2ccccc2)NC(=O)[C@H](CCC(=O)O)NC(=O)[C@H]([C@@H](C)O)NC(=O)[C@@H]2CCCN2C(=O)[C@@H]2CCCN2C1=O [3BP-3300, Hex-[Cys(3MeBn)-Pro-Pro-Thr-Glu-Phe-Cys]-Asp-Gab-Arg-NH2] (Hexanoyl-CPPTEFCD[GABA]R-NH2; linker 1-7 via mXylylene) |
| < 0.01 µM | < 0.01 µM | < 0.01 µM |  |  | CCCCCC(=O)N[C@H]1CSCc2cccc(c2)CSC[C@@H](C(=O)N[C@@H](CC(=O)O)C(=O)NCc2ccc(C(=O)N[C@@H](CCCNC(=N)N)C(N)=O)cc2)NC(=O)[C@H](Cc2ccccc2)NC(=O)[C@H](CCC(=O)O)NC(=O)[C@H]([C@@H](C)O)NC(=O)[C@@H]2CCCN2C(=O)[C@@H]2CCCN2C1=O [3BP-3301, Hex-[Cys(3MeBn)-Pro-Pro-Thr-Glu-Phe-Cys]-Asp-Pamb-Arg-NH2] (Hexanoyl-CPPTEFCD[4Amb]R-NH2; linker 1-7 via mXylylene) |
| < 0.01 µM | < 0.01 µM | < 0.01 µM |  |  | CCCCCC(=O)N[C@H]1CSCc2cccc(c2)CSC[C@@H](C(=O)N[C@@H](CC(=O)O)C(=O)NCc2cccc(C(=O)N[C@@H](CCCNC(=N)N)C(N)=O)c2)NC(=O)[C@H](Cc2ccccc2)NC(=O)[C@H](CCC(=O)O)NC(=O)[C@H]([C@@H](C)O)NC(=O)[C@@H]2CCCN2C(=O)[C@@H]2CCCN2C1=O [3BP-3324, Hex-[Cys(3MeBn)-Pro-Pro-Thr-Glu-Phe-Cys]-Asp-Mamb-Arg-NH2] (Hexanoyl-CPPTEFCD[3Amb]R-NH2; linker 1-7 via mXylylene) |
| < 0.01 µM | < 0.01 µM | < 0.01 µM |  |  | CCCCCC(=O)N[C@H]1CSCc2cccc(c2)CSC[C@@H](C(=O)N[C@@H](CC(=O)O)C(=O)NCCCNCCOCCOCCCNC(=O)CCC(=O)N[C@@H](CCCCNC(=O)CN2CCN(CC(=O)O)CCN(CC(=O)O)CCN(CC(=O)O)CC2)C(N)=O)NC(=O)[C@H](Cc2ccccc2)NC(=O)[C@H](CCC(=O)O)NC(=O)[C@H]([C@@H](C)O)NC(=O)[C@@H]2CCCN2C(=O)[C@@H]2CCCN2C1=O [3BP-3396, Hex-[Cys(3MeBn)-Pro-Pro-Thr-Glu-Phe-Cys]-Asp-Ttds-Lys(DOTA)-NH2] (Hexanoyl-CPPTEFCD-X19; linker 1-7 via mXylylene) |
| < 0.01 µM | < 0.01 µM | < 0.01 µM |  |  | CCCC[C@H](NC(=O)CCC(=O)NCCCOCCOCCOCCCNC(=O)CN1CCN(CC(=O)O)CCN(CC(=O)O)CCN(CC(=O)O)CC1)C(=O)N[C@H]1CSCc2cccc(c2)CSC[C@@H](C(=O)N[C@@H](CC(=O)O)C(N)=O)NC(=O)[C@H](Cc2ccccc2)NC(=O)[C@H](CCC(N)=O)NC(=O)[C@H]([C@@H](C)O)NC(=O)[C@@H]2CCCN2C(=O)[C@@H]2CCCN2C1=O [3BP-3401, DOTA-Ttds-Nle-[Cys(3MeBn)-Pro-Pro-Thr-Gln-Phe-Cys]-Asp-NH2] ({X2-Suc}-[Nle]CPPTQFCD-NH2; linker 2-8 via mXylylene) |
|  |  |  | 0.01 to 0.0794 µM | 0.01 to 0.0794 µM | CCCC(NC(=O)CCC(=O)NCCCOCCOCCOCCCNC(=O)CN1CCN(CC(=O)O)CCN(CC(=O)O)CCN(CC(=O)O)CC1)C(=O)N[C@H]1CSCc2cc(CSCCNC(=O)CN3CCN(CC(=O)O)CCN(CC(=O)O)CCN(CC(=O)O)CC3)cc(c2)CSC[C@@H](C(=O)N[C@@H](CC(=O)O)C(=O)NCCCOCCOCCOCCCNC(=O)CCC(=O)N[C@@H](CCCCNC(=O)CN2CCN(CC(=O)O)CCN(CC(=O)O)CCN(CC(=O)O)CC2)C(N)=O)NC(=O)[C@H](Cc2ccccc2)NC(=O)[C@H](CCC(N)=O)NC(=O)[C@H]([C@@H](C)O)NC(=O)[C@@H]2CCCN2C(=O)[C@@H]2CCCN2C1=O (stereo partly drawn) [3BP-4392, DOTA-Ttds-Nle-[Cys(tMeBn(DOTA-AET))-Pro-Pro-Thr-Gln-Phe-Cys]-Asp-Ttds-Lys(DOTA)-NH2] |
|  |  |  | < 0.01 µM | < 0.01 µM | CCCC(NC(=O)CCC(=O)NCCCOCCOCCOCCCNC(=O)CN1CCN(CC(=O)O)CCN(CC(=O)O)CCN(CC(=O)O)CC1)C(=O)N[C@H]1CSCc2cccc(c2)CSC[C@@H](C(=O)N[C@@H](CC(=O)O)C(=O)NCCCOCCOCCOCCCNC(=O)CCC(=O)N[C@@H](CCCCNC(=O)CN2CCN(CC(=O)O)CCN(CC(=O)O)CCN(CC(=O)O)CC2)C(N)=O)NC(=O)[C@H](Cc2ccccc2)NC(=O)[C@H](CCC(N)=O)NC(=O)[C@H]([C@@H](C)O)NC(=O)[C@@H]2CCCN2C(=O)[C@@H]2CCCN2C1=O (stereo partly drawn) [3BP-4393, DOTA-Ttds-Nle-[Cys(3MeBn)-Pro-Pro-Thr-Gln-Phe-Cys]-Asp-Ttds-Lys(DOTA)-NH2] |

| SMILES | Kd (Human recombinant FAP [1]) | IC50 (Human recombinant FAP [2]; recombinant human FAP) | IC50 ([3]; WI-38 fibroblasts) | IC50 (Human recombinant FAP [2]) | IC50 [3] |
| --- | --- | --- | --- | --- | --- |
| CCCCCC(=O)N[C@H]1CSCc2cccc(c2)CSC[C@@H](C(=O)N[C@@H](CC(=O)O)C(=O)NCCCNCCOCCOCCCNC(=O)CCC(=O)N[C@@H](CCCCNC(=O)CN2CCN(CC(=O)O)CCN(CC(=O)O)CCN(CC(=O)O)CC2)C(N)=O)NC(=O)[C@H](Cc2ccccc2)NC(=O)[C@H](CCC(N)=O)NC(=O)[C@H]([C@@H](C)O)NC(=O)[C@@H]2CCCN2C(=O)[C@@H]2CCCN2C1=O [3BP-3395, Hex-[Cys(3MeBn)-Pro-Pro-Thr-Gln-Phe-Cys]-Asp-Ttds-Lys(DOTA)-NH2] (Hexanoyl-CPPTQFCD-X19; linker 1-7 via mXylylene) | < 0.01 µM | < 0.01 µM | < 0.01 µM |  |  |
| CCCCCC(=O)N[C@H]1CSCc2cccc(c2)CSC[C@@H](C(=O)N[C@@H](CC(=O)O)C(=O)NCCCCCNC(=O)CN2CCN(CC(=O)O)CCN(CC(=O)O)CCN(CC(=O)O)CC2)NC(=O)[C@H](Cc2ccccc2)NC(=O)[C@H](CCC(N)=O)NC(=O)[C@H]([C@@H](C)O)NC(=O)[C@@H]2CCCN2C(=O)[C@@H]2CCCN2C1=O [3BP-3403, Hex-[Cys(3MeBn)-Pro-Pro-Thr-Gln-Phe-Cys]-Asp-Ape(DOTA)] (Hexanoyl-CPPTQFCD-{NH(CH2)5NHDOTA}; linker 1-7 via mXylylene) | < 0.01 µM | < 0.01 µM | < 0.01 µM |  |  |
| CCCCCC(=O)N[C@H]1CSCc2cccc(c2)CSC[C@@H](C(=O)N[C@@H](CCCCNC(=O)CCC(=O)NCCCOCCOCCOCCCNC(=O)CN2CCN(CC(=O)O)CCN(CC(=O)O)CCN(CC(=O)O)CC2)CC(=O)O)NC(=O)[C@H](Cc2ccccc2)NC(=O)[C@H](CCC(N)=O)NC(=O)[C@H]([C@@H](C)O)NC(=O)[C@@H]2CCCN2C(=O)[C@@H]2CCCN2C1=O [3BP-3489, Hex-[Cys(3MeBn)-Pro-Pro-Thr-Gln-Phe-Cys]-Bhk(DOTA-Ttds)-OH] | < 0.01 µM | < 0.01 µM | < 0.01 µM |  |  |
| CCCCCS(=O)(=O)N[C@H]1CSCc2cccc(c2)CSC[C@@H](C(=O)N[C@@H](CC(=O)O)C(N)=O)NC(=O)[C@H](Cc2ccccc2)NC(=O)[C@H](CCC(N)=O)NC(=O)[C@H]([C@@H](C)O)NC(=O)[C@@H]2CCCN2C(=O)[C@@H]2CCCN2C1=O [3BP-3514, Pentyl-SO2-[Cys(3MeBn)-Pro-Pro-Thr-Gln-Phe-Cys]-Asp-NH2] (Pentanesulfonyl-CPPTQFCD-NH2; linker 1-7 via mXylylene) | < 0.01 µM | < 0.01 µM | < 0.01 µM |  |  |
| CCCCCC(=O)N[C@H]1CSCc2cc(CSCCNC(=O)CN3CCN(CC(=O)O)CCN(CC(=O)O)CCN(CC(=O)O)CC3)cc(c2)CSC[C@@H](C(=O)N[C@@H](CC(=O)O)C(=O)NCCCOCCOCCOCCCNC(=O)CCC(=O)N[C@@H](CCCCNC(=O)CN2CCN(CC(=O)O)CCN(CC(=O)O)CCN(CC(=O)O)CC2)C(N)=O)NC(=O)[C@H](Cc2ccccc2)NC(=O)[C@H](CCC(N)=O)NC(=O)[C@H]([C@@H](C)O)NC(=O)[C@@H]2CCCN2C(=O)[C@@H]2CCCN2C1=O [3BP-4391, Hex-[Cys(tMeBn(DOTA-AET))-Pro-Pro-Thr-Gln-Phe-Cys]-Asp-Ttds-Lys(DOTA)-NH2] (Hexanoyl-CPPTQFCD-X3; linker 1-7 via TBMB(SCH2CH2NH-DOTA)) |  |  |  | < 0.01 µM | < 0.01 µM |
